Assay results published in patent US10538497B2, “Compounds as indoleamine 2,3-dioxygenase inhibitors” (Merck Sharp & Dohme Corp., priority 2015, dated 2020).
One block for each compound: values may come before it.

Tests used:
[1] = biological target: T1, IDO1 (Homo sapiens (Human), UniProt P14902); test: IDO1 Human Whole Blood Assay; format: cell-based; conditions: LPS and IFNγ 100 ng/mL, kynurenine by LC/MS/MS
Experimental: IDO1 Human Whole Blood Assay
LPS and IFNγ was prepared in RPMI to a 10× of final conc. (1000 ng/mL), final concentration is 100 ng/mL.
Human whole blood was drawn in sodium heparin coated tubes from healthy internal donors. Two hundred fourty μL of blood was transferred to each of the wells of a v-bottom 96 well plate. Thirty μL of compound was transferred from intermediate dilution plate, and incubated for 15 min. […] from stimulants was then transferred to blood and mixed thoroughly. Plate was covered with breathable membrane and incubated at 37° C. for overnight (18 h).
On day 2 isotope labeled standard of kunurenine and tryptophan was made in water at 10× concentration and 30 μL was added to the blood at 3 μM final concentration. The assay plates were centrifuged at 300×G for 10 min with no brake to separate plasma from red blood cells. Sixty μL of plasma samples was removed without disturbing red blood cells. Plasma was diluted with RPMI in 1:1 ratio and proteins were precipitated out with two volume of Acetonitrile. The plates was centrifuged at 4000×G for 60 min. Twenty μL of supernatant was carefully transferred to a 384 well plate contain 40 μL of 0.1% formic acid in water and analysed by LC/MS/MS.
LC/MS/MS analyses were performed using Thermo Fisher's LX4-TSQ Quantum Ultra system. This system consists of four Agilent binary high-performance liquid chromatography (HPLC) pumps and a TSQ Quantum Ultra triple quadrupole MS/MS instrument. For each sample, 5 μL were injected onto an Atlantis T3 column column (2.1 mm×150 mm, 3 μm particle size) from Waters. The mobile phase gradient pumped at 0.8 mL/min was used to elute the analytes from the column at 25° C. The elution started at 0% B increasing linearly to 25% B at 6.5 min, holding at 25% for 1 min, re-equilibrating to 10 min. Mobile phase A consisted of 0.1% formic acid in water. Mobile phase B consisted of 0.1% of formic acid in acetonitrile. Data was acquired in positive mode using a HESI interface. The operational parameters for the TSQ Quantum Ultra instrument were a spray voltage of 4000 V, capillary temperature of 380° C., vaporizer temperature 400° C., shealth gas 60 arbitrary units, Aux gas 20 arbitrary units, tube lens 85 and collision gas 1.2 mTorr. SRM chromatograms of kynurenine (Q1: 209.2>Q3:94.0) and internal standard (Q1: 215.3>Q3:98.2) were collected for 90 sec. The peak area was integrated by Xcalibur Quan software. The ratios between the kynurenine generated in the reaction and 2D6-Kynurenine spiked-in internal standard were used to generate percentage inhibition and IC50 values. Compounds were titrated and IC50's were calculated by 4 parameter sigmoidal curve fitting formula.

[2] = biological target: T1, IDO1; test: IDO1 Cellular Assay in Hela Cells Stimulated with IFNγ; format: cell-based; conditions: Hela cells stimulated with IFNγ 100 ng/mL; read-out: IDO1 HELA Cell Assay, IC50
[3] = biological target: T1, IDO1; test: IDO1 Cellular Assay in Frozen HEK293 Cells Transiently Transfected with Human IDO1; format: cell-based; conditions: HEK293 cells transiently transfected with human IDO1; read-out: IDO1 HEK293 Cell Assay, IC50
[4] = biological target: T1, IDO1; test: IDO1 Enzyme Assay; conditions: HIS-tagged recombinant IDO1, 40 nM
[5] = read-out: IDO1 Enzyme Assay, IC50

T1 sequence (P14902 whole entry): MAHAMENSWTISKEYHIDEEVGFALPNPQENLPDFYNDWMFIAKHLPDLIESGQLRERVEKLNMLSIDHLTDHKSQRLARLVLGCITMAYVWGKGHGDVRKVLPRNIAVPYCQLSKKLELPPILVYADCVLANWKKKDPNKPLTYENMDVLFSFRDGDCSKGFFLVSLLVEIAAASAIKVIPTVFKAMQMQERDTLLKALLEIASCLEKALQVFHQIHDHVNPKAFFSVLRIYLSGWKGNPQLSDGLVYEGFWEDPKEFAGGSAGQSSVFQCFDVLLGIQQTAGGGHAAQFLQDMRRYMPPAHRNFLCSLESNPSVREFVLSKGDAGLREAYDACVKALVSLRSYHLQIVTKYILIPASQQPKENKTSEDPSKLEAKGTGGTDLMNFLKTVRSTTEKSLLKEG

SMILES: CC(C)(O)C(O)CSc1nonc1/C(=N/O)Nc1ccc(F)c(Cl)c1 (single isomer, unassigned) [Example 189, N-(3-chloro-4-fluorophenyl)-4-[(2,3-dihydroxy-3-methylbutyl)sulfanyl]-N′-hydroxy-1,2,5-oxadiazole-3-carboximidamide]
IC50 [1]: 704 nM
IC50 [2]: 66 nM
IC50 [3]: 39.9 nM
IC50 ([4]; IDO1 Enzyme Assay, IC50, nM): 69.4 nM

SMILES: CC(C)(O)C(O)CSc1nonc1/C(=N/O)Nc1ccc(F)c(Cl)c1 (single isomer, unassigned) [Example 190, N-(3-chloro-4-fluorophenyl)-4-[(2,3-dihydroxy-3-methylbutyl)sulfanyl]-N′-hydroxy-1,2,5-oxadiazole-3-carboximidamide]
IC50 [1]: 1390 nM
IC50 [2]: 111 nM
IC50 [3]: 56.8 nM
IC50 ([4]; IDO1 Enzyme Assay, IC50, nM): 79.1 nM

SMILES: CC(C)(O)C(O)CSc1nonc1/C(=N/O)Nc1ccc(F)c(Br)c1 (stereo not drawn) [Example 29, N-(3-bromo-4-fluorophenyl)-4-((2,3-dihydroxy-3-methylbutyl)thio)-N′-hydroxy-1,2,5-oxadiazole-3-carboximidamide]
IC50 [1]: 784 nM
IC50 [2]: 61 nM
IC50 [3]: 23.6 nM
IC50 ([4]; IDO1 Enzyme Assay, IC50, nM): 81.3 nM

SMILES: CC(C)(O)C(O)CSc1nonc1/C(=N/O)Nc1ccc(F)c(Br)c1 (stereo not drawn) [Example 30, N-(3-bromo-4-fluorophenyl)-4-((2,3-dihydroxy-3-methylbutyl)thio)-N′-hydroxy-1,2,5-oxadiazole-3-carboximidamide]
IC50 [1]: 891 nM
IC50 [2]: 84.2 nM
IC50 [3]: 29.4 nM
IC50 ([4]; IDO1 Enzyme Assay, IC50, nM): 85.3 nM

SMILES: COCCNS(=O)(=O)NCCSc1nonc1/C(=N/O)Nc1ccc(F)c(Br)c1 [Example 31, N-(3-bromo-4-fluorophenyl)-N′-hydroxy-4-((2-((N-(2-methoxyethyl)sulfamoyl)amino)ethyl)thio)-1,2,5-oxadiazole-3-carboximidamide]
IC50 [1]: 643 nM
IC50 [2]: 37.4 nM
IC50 [3]: 10.2 nM
IC50 [4, 5]: 43.4 nM

SMILES: O=C(CSc1nonc1/C(=N/O)Nc1ccc(F)c(Br)c1)N[C@@H]1C[C@@H](O)[C@@H](O)C1 [Example 144, 2-({4-[N-(3-bromo-4-fluorophenyl)-N′-hydroxycarbamimidoyl]-1,2,5-oxadiazol-3-yl}sulfanyl)-N-[(1s,3R,4S)-3,4-dihydroxycyclopentyl]acetamide]
IC50 [1]: 3990 nM
IC50 [3]: 549 nM
IC50 [4, 5]: 75.8 nM

SMILES: ON=C(Nc1ccc(F)c(Br)c1)c1nonc1SCCn1ccnc1 [Example 172, N-(3-bromo-4-fluorophenyl)-N′-hydroxy-4-{[2-(1H-imidazol-1-yl)ethyl]sulfanyl}-1,2,5-oxadiazole-3-carboximidamide]
IC50 [2]: 43.4 nM
IC50 [3]: 47.5 nM
IC50 ([4]; IDO1 Enzyme Assay, IC50, nM): 78.6 nM

SMILES: O=C(CSc1nonc1/C(=N/O)Nc1ccc(F)c(Br)c1)N[C@H]1C[C@@H](O)[C@@H](O)C1 [Example 177, 2-({4-[N-(3-bromo-4-fluorophenyl)-N′-hydroxycarbamimidoyl]-1,2.5-oxadiazol-3-yl}sulfanyl)-N-[(1r,3R,4S)-3,4-dihydroxycyclopentyl]acetamide]
IC50 [2]: 469 nM
IC50 [3]: 411 nM
IC50 [4, 5]: 97.3 nM

SMILES: CN(C)CCSc1nsnc1/C(=N/O)Nc1ccc(F)c(Br)c1 [Example 209, N-(3-bromo-4-fluorophenyl)-4-{[2-(dimethylamino)ethyl]sulfanyl}-N′-hydroxy-1,2,5-thiadiazole-3-carboximidamide]
IC50 [2]: 968 nM
IC50 [3]: 770 nM
IC50 [4, 5]: 1280 nM

The next lines start with the values.

IC50 [1]: 441 nM
IC50 [2]: 39.5 nM
IC50 [3]: 42.5 nM
IC50 [4, 5]: 34.8 nM
SMILES: OCC(O)CSc1nonc1/C(=N/O)Nc1ccc(F)c(Br)c1 (stereo not drawn) [Example 17, (Z)-N-(3-bromo-4-fluorophenyl)-4-((2,3-dihydroxypropyl)thio)-N′-hydroxy-1,2,5-oxadiazole-3-carboximidamide]

IC50 [1]: 7110 nM
IC50 [2]: 94.8 nM
IC50 [3]: 206 nM
SMILES: CNc1c(NCCSc2nonc2/C(=N/O)Nc2ccc(F)c(Br)c2)c(=O)c1=O [Example 36, N-(3-bromo-4-fluorophenyl)-N′-hydroxy-4-((2-((2-(methylamino)-3,4-dioxocyclobut-1-en-1-yl)amino)ethyl)thio)-1,2,5-oxadiazole-3-carboximidamide]

IC50 [2]: 97.3 nM
IC50 [3]: 110 nM
IC50 [4, 5]: 142 nM
SMILES: OC[C@H](O)CSc1nonc1/C(=N/O)Nc1ccc(F)c(C(F)F)c1 [Example 167, N-[3-(difluoromethyl)-4-fluorophenyl]-4-{[(2S)-2,3-dihydroxypropyl]sulfanyl}-N′-hydroxy-1,2,5-oxadiazole-3-carboximidamide]

IC50 [2]: 110 nM
IC50 [3]: 132 nM
IC50 [4, 5]: 68.4 nM
SMILES: OC[C@H](O)CSc1nonc1/C(=N/O)Nc1ccc(F)c(Cl)c1 [Example 170, N-(3-chloro-4-fluorophenyl)-4-{[(2S)-2,3-dihydroxypropyl]sulfanyl}-N′-hydroxy-1,2,5-oxadiazole-3-carboximidamide]

IC50 [2]: 63.6 nM
IC50 [3]: 113 nM
IC50 [4, 5]: 82.7 nM
SMILES: CC(CO)(CO)NC(=O)CSc1nonc1/C(=N/O)Nc1ccc(F)c(Br)c1 [Example 174, 2-({4-[N-(3-bromo-4-fluorophenyl)-N′-hydroxycarbamimidoyl]-1,2,5-oxadiazol-3-yl}sulfanyl)-N-[2-hydroxy-1-(hydroxymethyl)-1-methylethyl]acetamide]

IC50 [2]: 127 nM
IC50 [3]: 182 nM
IC50 [4, 5]: 116 nM
SMILES: CC(O)C(CO)NC(=O)CSc1nonc1/C(=N/O)Nc1ccc(F)c(Br)c1 (stereo not drawn) [Example 176, 2-({4-[N-(3-bromo-4-fluorophenyl)-N′-hydroxycarbamimidoyl]-1,2,5-oxadiazol-3-yl}sulfanyl)-N-[2-hydroxy-1-(hydroxymethyl)propyl]acetamide]

IC50 [2]: 426 nM
IC50 [3]: 309 nM
IC50 [4, 5]: 196 nM
SMILES: CC(=O)N[C@@H](C)CSc1nonc1/C(=N/O)Nc1ccc(F)c(C#N)c1 [Example 180, N-[(1S)-2-({4-[N-(3-cyano-4-fluorophenyl)-N′-hydroxycarbamimidoyl]-1,2,5-oxadiazol-3-yl}sulfanyl)-1-methylethyl]acetamide]

IC50 [2]: 58.2 nM
IC50 [3]: 25.6 nM
IC50 [4, 5]: 52.5 nM
SMILES: CS(=O)(=O)NCCSc1nonc1/C(=N/O)Nc1ccc(F)c(C(F)F)c1 [Example 183, N-[3-(difluoromethyl)-4-fluorophenyl]-N′-hydroxy-4-({2-[(methylsulfonyl)amino]ethyl}sulfanyl)-1,2,5-oxadiazole-3-carboximidamide]

IC50 [2]: 47.4 nM
IC50 [3]: 16.1 nM
IC50 [4, 5]: 50.9 nM
SMILES: CS(=O)(=O)NCCSc1nonc1/C(=N/O)Nc1ccc(F)c(Cl)c1 [Example 184, N-(3-chloro-4-fluorophenyl)-N′-hydroxy-4-({2-[(methylsulfonyl)amino]ethyl}sulfanyl)-1,2,5-oxadiazole-3-carboximidamide]

IC50 [2]: 322 nM
IC50 [3]: 412 nM
IC50 [4, 5]: 180 nM
SMILES: N#Cc1cc(N/C(=N\O)c2nonc2SCC(=O)NC2COC2)ccc1F [Example 186, 2-({4-[N-(3-cyano-4-fluorophenyl)-N′-hydroxycarbamimidoyl]-1,2,5-oxadiazol-3-yl}sulfanyl)-N-oxetan-3-ylacetamide]

IC50 [2]: 272 nM
IC50 [3]: 140 nM
IC50 [4, 5]: 86 nM
SMILES: N#Cc1cc(N/C(=N\O)c2nonc2SCCNC(=O)[C@H]2CC2(F)F)ccc1F [Example 187, (1R)-N-[2-({4-[N-(3-cyano-4-fluorophenyl)-N′-hydroxycarbamimidoyl]-1,2,5-oxadiazol-3-yl}sulfanyl)ethyl]-2,2-difluorocyclopropanecarboxamide]

IC50 [2]: 173 nM
IC50 [3]: 87.7 nM
IC50 [4, 5]: 87.9 nM
SMILES: N#Cc1cc(N/C(=N\O)c2nonc2SCCNC(=O)[C@@H]2CC2(F)F)ccc1F [Example 188, (1S)-N-[2-({4-[N-(3-cyano-4-fluorophenyl)-N′-hydroxycarbamimidoyl]-1,2,5-oxadiazol-3-yl}sulfanyl)ethyl]-2,2-difluorocyclopropanecarboxamide]
